Laboratory results taken from article PMC6934184, “Selective DNA-PKcs inhibition extends the therapeutic index of localized radiotherapy and chemotherapy” (The Journal of Clinical Investigation, 2019).

Biological target: T1, TXK (Homo sapiens, UniProt P42681)
T1 construct: purchased Thermo Fisher Scientific (Life Technologies) SelectScreen
Test: SelectScreen Z'LYTE
Format: biochemical
Method in brief: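 Percent values come from Thermo SelectScreen profiling of NU5455, combining activity and binding assays. CSF1R was run in Z'LYTE format at Km app ATP, and CAMK1 in Adapta format with ATP listed at 10.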

T1 sequence (P42681 whole entry): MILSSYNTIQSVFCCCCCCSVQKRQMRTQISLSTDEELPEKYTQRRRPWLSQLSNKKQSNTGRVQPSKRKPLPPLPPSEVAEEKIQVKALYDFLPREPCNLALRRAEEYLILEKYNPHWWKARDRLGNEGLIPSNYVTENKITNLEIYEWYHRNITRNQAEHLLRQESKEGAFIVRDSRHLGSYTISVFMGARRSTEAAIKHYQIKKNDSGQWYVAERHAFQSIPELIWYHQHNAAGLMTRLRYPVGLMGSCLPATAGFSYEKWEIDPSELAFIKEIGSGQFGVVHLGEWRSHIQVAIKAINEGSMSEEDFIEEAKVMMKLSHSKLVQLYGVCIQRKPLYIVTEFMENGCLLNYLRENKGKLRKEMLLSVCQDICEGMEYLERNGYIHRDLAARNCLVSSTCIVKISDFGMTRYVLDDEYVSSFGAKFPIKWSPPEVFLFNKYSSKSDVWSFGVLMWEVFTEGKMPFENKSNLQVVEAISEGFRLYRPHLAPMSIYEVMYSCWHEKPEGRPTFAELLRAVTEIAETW

CN(C(=O)CN1CCOCC1)c1ccc2sc3c(-c4cccc5c(=O)cc(N6CC7CCC(C6)O7)oc45)cccc3c2c1 [NU5455] showed an inhibition at 1 µM of -2.9%.
